Measurements reported in ChEMBL document CHEMBL1129704, “Synthesis, biological activity and quantitative structure-activity relationships of N-substituted-3,4-dihydro-2H-1-benzopyran derivatives” (Bioorg Med Chem Lett, 1996).

Columns and labels:
D(1A) dopamine receptor [1] = target: T1, D(1A) dopamine receptor (Homo sapiens, UniProt P21728); experiment: Compound was evaluated for the binding affinity towards Dopamine receptor D1 by displacement of […].
[2] = target: 5-hydroxytryptamine receptor 2A (Homo sapiens, UniProt P28223); experiment: Binding affinity towards 5-hydroxytryptamine 2A receptor by displacement of [3H]ketanserin
Sequence of 5-hydroxytryptamine receptor 2A (P28223 whole entry): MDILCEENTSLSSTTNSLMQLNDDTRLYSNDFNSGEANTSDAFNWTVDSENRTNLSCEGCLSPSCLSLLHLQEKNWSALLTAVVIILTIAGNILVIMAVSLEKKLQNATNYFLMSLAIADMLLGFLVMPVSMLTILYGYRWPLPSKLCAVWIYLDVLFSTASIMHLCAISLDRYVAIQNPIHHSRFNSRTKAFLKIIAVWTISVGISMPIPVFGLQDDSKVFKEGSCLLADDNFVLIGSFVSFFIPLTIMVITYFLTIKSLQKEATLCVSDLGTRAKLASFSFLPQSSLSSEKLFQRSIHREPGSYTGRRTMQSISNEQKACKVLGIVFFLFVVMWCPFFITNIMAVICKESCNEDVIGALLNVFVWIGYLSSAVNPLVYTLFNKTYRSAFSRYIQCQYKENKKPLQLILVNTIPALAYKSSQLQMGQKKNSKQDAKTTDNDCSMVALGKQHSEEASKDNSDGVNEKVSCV

D(2) dopamine receptor [3] = target: T2, D(2) dopamine receptor (Homo sapiens, UniProt P14416); experiment: Binding affinity towards Dopamine receptor D2 by displacement of [3H]-Raclopride.
T2 sequence (P14416 whole entry): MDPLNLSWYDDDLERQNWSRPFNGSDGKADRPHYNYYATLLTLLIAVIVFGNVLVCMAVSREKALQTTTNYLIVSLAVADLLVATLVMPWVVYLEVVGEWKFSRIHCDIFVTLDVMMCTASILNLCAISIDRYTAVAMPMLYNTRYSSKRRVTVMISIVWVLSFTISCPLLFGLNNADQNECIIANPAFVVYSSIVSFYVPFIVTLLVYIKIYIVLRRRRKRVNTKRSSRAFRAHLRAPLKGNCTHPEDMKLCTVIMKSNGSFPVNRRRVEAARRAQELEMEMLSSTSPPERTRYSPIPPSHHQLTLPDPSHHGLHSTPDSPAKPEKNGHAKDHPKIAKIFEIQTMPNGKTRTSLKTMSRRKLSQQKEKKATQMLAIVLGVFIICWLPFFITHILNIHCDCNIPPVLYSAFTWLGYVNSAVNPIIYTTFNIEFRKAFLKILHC

[4] = target: T3, 5-hydroxytryptamine receptor 1B (Homo sapiens, UniProt P28222); experiment: Binding affinity towards 5-hydroxytryptamine 1B receptor by displacement of [3H]5-HT.
T3 sequence (P28222 whole entry): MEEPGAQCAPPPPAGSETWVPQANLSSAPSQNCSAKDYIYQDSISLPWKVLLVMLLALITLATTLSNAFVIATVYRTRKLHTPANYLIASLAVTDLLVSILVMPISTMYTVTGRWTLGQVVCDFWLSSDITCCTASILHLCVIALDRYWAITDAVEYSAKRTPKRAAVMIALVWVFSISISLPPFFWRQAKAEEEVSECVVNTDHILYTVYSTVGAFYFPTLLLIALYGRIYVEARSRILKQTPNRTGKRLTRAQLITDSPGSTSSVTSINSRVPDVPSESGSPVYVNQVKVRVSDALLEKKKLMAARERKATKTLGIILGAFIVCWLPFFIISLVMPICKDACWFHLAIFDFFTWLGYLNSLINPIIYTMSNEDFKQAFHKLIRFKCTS

[5] = target: T4, 5-hydroxytryptamine receptor 1A (Homo sapiens, UniProt P08908); experiment: Binding affinity towards 5-hydroxytryptamine 1A receptor by displacement of [3H]8-OH-DPAT.
T4 sequence (P08908 whole entry): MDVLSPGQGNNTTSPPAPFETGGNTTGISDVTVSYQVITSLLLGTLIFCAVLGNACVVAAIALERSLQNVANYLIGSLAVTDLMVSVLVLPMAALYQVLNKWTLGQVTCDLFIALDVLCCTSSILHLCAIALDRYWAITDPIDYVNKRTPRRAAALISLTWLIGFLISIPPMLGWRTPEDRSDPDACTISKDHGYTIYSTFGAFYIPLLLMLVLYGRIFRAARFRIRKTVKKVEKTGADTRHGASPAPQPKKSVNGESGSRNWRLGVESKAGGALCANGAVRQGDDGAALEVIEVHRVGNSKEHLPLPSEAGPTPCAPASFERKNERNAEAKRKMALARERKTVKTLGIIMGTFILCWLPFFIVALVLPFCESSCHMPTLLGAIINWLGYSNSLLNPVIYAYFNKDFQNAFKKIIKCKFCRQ

[6] = target: T5, 5-hydroxytryptamine receptor 2C (Homo sapiens, UniProt P28335); experiment: Compound was evaluated for the binding affinity towards 5-hydroxytryptamine 2C receptor by displacement of [3H]-Ketanserin
T5 sequence (P28335 whole entry): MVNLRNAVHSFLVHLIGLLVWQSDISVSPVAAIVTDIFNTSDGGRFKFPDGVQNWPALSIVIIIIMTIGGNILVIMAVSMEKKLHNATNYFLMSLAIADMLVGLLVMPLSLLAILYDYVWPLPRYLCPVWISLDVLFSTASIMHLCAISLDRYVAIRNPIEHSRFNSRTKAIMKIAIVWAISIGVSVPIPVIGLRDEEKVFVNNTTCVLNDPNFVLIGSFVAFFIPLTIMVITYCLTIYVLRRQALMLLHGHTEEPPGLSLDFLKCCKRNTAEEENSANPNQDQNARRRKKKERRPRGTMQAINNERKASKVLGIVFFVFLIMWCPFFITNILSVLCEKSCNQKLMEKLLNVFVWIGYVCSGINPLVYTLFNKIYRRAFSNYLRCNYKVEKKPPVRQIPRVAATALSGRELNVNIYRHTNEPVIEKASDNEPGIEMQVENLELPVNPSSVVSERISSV

D(2) dopamine receptor [7] = target: T2, D(2) dopamine receptor; experiment: Compound was evaluated for the binding affinity towards Dopamine receptor D2 by displacement of […].
[8] = target: T3, 5-hydroxytryptamine receptor 1B; experiment: Compound was evaluated for the binding affinity towards 5-hydroxytryptamine 1B receptor by displacement of […].
D(1A) dopamine receptor [9] = target: T1, D(1A) dopamine receptor; experiment: Binding affinity towards Dopamine receptor D1 by displacement of [3H]SCH-23,390
D(1A) dopamine receptor [10] = target: T1, D(1A) dopamine receptor; experiment: Compound was evaluated for the Dopamine receptor D1 by displacement of [3H]SCH-23390.

T1 sequence (P21728 whole entry): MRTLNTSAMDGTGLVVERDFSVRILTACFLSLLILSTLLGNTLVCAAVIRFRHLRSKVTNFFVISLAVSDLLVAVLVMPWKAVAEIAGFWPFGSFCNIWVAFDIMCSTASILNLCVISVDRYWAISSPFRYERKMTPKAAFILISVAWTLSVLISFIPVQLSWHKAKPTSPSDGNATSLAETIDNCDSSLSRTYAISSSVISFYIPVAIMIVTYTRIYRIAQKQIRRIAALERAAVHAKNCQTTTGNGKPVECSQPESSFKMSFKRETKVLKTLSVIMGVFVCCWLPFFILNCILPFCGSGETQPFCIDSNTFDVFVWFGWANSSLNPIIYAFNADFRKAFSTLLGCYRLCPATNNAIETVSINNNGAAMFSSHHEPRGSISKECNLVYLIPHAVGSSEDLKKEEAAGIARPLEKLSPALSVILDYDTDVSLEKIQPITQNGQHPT

Question: Which IC50 (D(1A) dopamine receptor [1]) does the source give for `CCCN(CCC)CC1COc2cccc(OC)c2C1` (stereo unspecified) here?
Answer: 34.7 µM

Question: What about the IC50 [2] of the same molecule?
Answer: 15.8 µM

Question: And the IC50 (D(2) dopamine receptor [3])?
Answer: 2.57 µM

Question: What about the IC50 [4] of the same molecule?
Answer: 22.9 µM

Question: And the IC50 [5]?
Answer: 0.234 µM

Question: And the IC50 [6]?
Answer: 33.9 µM

Question: With `COc1cccc2c1CC1(CCCN1CCCCN1C(=O)CC3(CCCC3)CC1=O)CO2` (stereo unspecified) as the molecule, how does the IC50 (D(2) dopamine receptor [7]) read?
Answer: 1.1 µM

Question: And the IC50 [8]?
Answer: 6.61 µM

Question: What about the IC50 [4] of the same molecule?
Answer: 3.8 µM

Question: And the IC50 [5]?
Answer: 0.0107 µM

Question: What about the IC50 (D(1A) dopamine receptor [9]) of the same molecule?
Answer: > 10 µM

Question: What does the source list for `CCCN1CCN(CCCCN2C(=O)CC3(CCCC3)CC2=O)CC12COc1cccc(OC)c1C2` (stereo unspecified)?
Answer: IC50 [2]: 11.2 µM; IC50 [4]: 1.58 µM; IC50 [5]: 15.8 µM

Question: What does the source list for `O=C1CC2(CCCC2)CC(=O)N1CCCCNCC1COc2ccccc2C1` (stereo unspecified)?
Answer: IC50 [2]: 0.0562 µM; IC50 (D(2) dopamine receptor [3]): 0.0676 µM; IC50 [4]: 6.92 µM; IC50 [5]: 0.00631 µM; IC50 (D(1A) dopamine receptor [9]): 3.31 µM

Question: How did the IC50 [2] turn out when `CCCN(CCCCN1C(=O)CC2(CCCC2)CC1=O)C1COc2cccc(OC)c2C1` (stereo unspecified) was run?
Answer: 1 µM

Question: And the IC50 (D(2) dopamine receptor [3])?
Answer: 0.01 µM

Question: What about the IC50 (D(1A) dopamine receptor [10]) of the same molecule?
Answer: 39.8 µM

Question: With `CCCN1CCN(Cc2ccccc2)CC12COc1cccc(OC)c1C2` (stereo unspecified) as the molecule, how does the IC50 [2] read?
Answer: 24.5 µM

Question: And the IC50 [4]?
Answer: 35.5 µM

Question: What about the IC50 [5] of the same molecule?
Answer: 15.8 µM

Question: What does the source list for `CCCN(CCC)CC1(N(CCC)CCC)COc2cccc(OC)c2C1` (stereo unspecified)?
Answer: IC50 [2]: 214 µM; IC50 [4]: 138 µM; IC50 [5]: 4.17 µM

Question: With `COc1cccc2c1CC(CNCCCCN1C(=O)CC3(CCCC3)CC1=O)CO2` (stereo unspecified) as the molecule, how does the IC50 [2] read?
Answer: 0.049 µM

Question: And the IC50 (D(2) dopamine receptor [3])?
Answer: 0.0295 µM

Question: And the IC50 [4]?
Answer: 3.02 µM

Question: And the IC50 [5]?
Answer: 0.000129 µM

Question: And the IC50 (D(1A) dopamine receptor [9])?
Answer: 0.832 µM

Question: How did the IC50 [2] turn out when `CCCN(CCCCN1C(=O)CC2(CCCC2)CC1=O)CC1COc2cccc(OC)c2C1` (stereo unspecified) was run?
Answer: 7.76 µM

Question: What about the IC50 (D(2) dopamine receptor [3]) of the same molecule?
Answer: 1.78 µM

Question: What about the IC50 [4] of the same molecule?
Answer: 7.41 µM

Question: What about the IC50 [5] of the same molecule?
Answer: 0.513 µM

Question: What about the IC50 (D(1A) dopamine receptor [9]) of the same molecule?
Answer: 13.8 µM

Question: How did the IC50 [2] turn out when `CCCN1CCN(CCC)C2(COc3cccc(OC)c3C2)C1` (stereo unspecified) was run?
Answer: 10 µM

Question: What about the IC50 [4] of the same molecule?
Answer: > 100 µM

Question: And the IC50 [5]?
Answer: 3.02 µM
